Results from PubChem BioAssay (NCI).
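Interpolation was linear, between the two tested concentrations surrounding the appropriate level; five concentrations were tested over 48 hours in 96-well plates. GI50 is the concentration that inhibits growth by half. Definition used: TGI = concentration required for complete inhibition of growth.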

Tests used:
Assay in all cases: growth of human tumour cells (NCI), 48 h
HOP-92 NSCLC = test system: HOP-92 NSCLC
HCT-15 colon = test system: HCT-15 colon
HCC-2998 colon = test system: HCC-2998 colon
HL-60(TB) leukemia = test system: HL-60(TB) leukemia
CCRF-CEM leukemia = test system: CCRF-CEM leukemia
NCI-H460 lung = test system: NCI-H460 lung
A498 renal = test system: A498 renal
UACC-62 melanoma = test system: UACC-62 melanoma
OVCAR-8 ovarian = test system: OVCAR-8 ovarian
OVCAR-4 ovarian = test system: OVCAR-4 ovarian

Compound	GI50 (HOP-92 NSCLC)	TGI (HOP-92 NSCLC)	GI50 (HCT-15 colon)	TGI (HCT-15 colon)	GI50 (HCC-2998 colon)	TGI (HCC-2998 colon)	GI50 (HL-60(TB) leukemia)	TGI (HL-60(TB) leukemia)	GI50 (CCRF-CEM leukemia)	TGI (CCRF-CEM leukemia)	GI50 (NCI-H460 lung)	TGI (NCI-H460 lung)	GI50 (A498 renal)	TGI (A498 renal)	GI50 (UACC-62 melanoma)	TGI (UACC-62 melanoma)	GI50 (OVCAR-8 ovarian)	GI50 (OVCAR-4 ovarian)	TGI (OVCAR-4 ovarian)	TGI (OVCAR-8 ovarian)
C=CCN1CC(=O)N2[C@@H](Cc3ccc(O)cc3F)C(=O)N(Cc3cccc(N4CC(N5CCN(CC)CC5)C4)n3)C[C@@H]2N1C(=O)NCc1ccccc1	0.0217 µM	0.0829 µM	0.449 µM	> 20.9 µM	0.0687 µM	> 100 µM	0.226 µM	26.5 µM	0.0398 µM	> 100 µM	0.038 µM	> 100 µM	< 0.0118 µM	0.0666 µM	0.0539 µM	10.5 µM	0.0295 µM	0.0329 µM	> 100 µM	
COC(=O)c1cc2c(cc1Cl)SC1=NN(C)C(N(C)C)N1S2(=O)=O (stereo not given)	> 100 µM	> 100 µM	> 100 µM	> 100 µM	> 100 µM	> 100 µM	> 100 µM	> 100 µM	> 100 µM	> 100 µM	> 100 µM	> 100 µM	> 100 µM	> 100 µM	> 100 µM	> 100 µM	> 100 µM	> 100 µM	> 100 µM	> 100 µM
Cc1nc(C(=O)O)c2ccccc2n1		> 100 µM				> 100 µM		> 100 µM		> 100 µM		> 100 µM		> 100 µM		> 100 µM				> 100 µM
N#Cc1ccc(C=NC23CC4CC(CC(C4)C2)C3)cc1		> 100 µM		> 100 µM		> 100 µM		53 µM		> 100 µM		> 100 µM		> 100 µM		> 100 µM			> 100 µM	> 100 µM
Cc1cc(C)nc(SC2=C(Nc3cc(Cl)ccc3O)C(=O)N(Cc3ccccc3)C2=O)n1	21.9 µM	68.5 µM	23.5 µM	78.4 µM	> 160 µM	> 160 µM	33.3 µM	70 µM	7.38 µM	124 µM	56.6 µM	> 160 µM	> 160 µM	> 160 µM	16.2 µM	41.8 µM	27 µM	34 µM	> 160 µM	110 µM
CCCCCCCCCCCCC(Br)C(=O)NCC(N)=O (stereo not given)		18.9 µM		28.7 µM		31 µM		31 µM		66.3 µM		34.7 µM		26.7 µM		22.7 µM			12.6 µM	33.6 µM
CCc1cccc(C)c1NC(=O)c1sc2nc3c(cc2c1N)C(=O)CCC3	0.644 µM	74.7 µM	0.495 µM	> 100 µM	1.75 µM	> 100 µM	0.327 µM		0.407 µM	> 35.4 µM	0.371 µM	14 µM	0.2 µM	0.759 µM	0.556 µM	> 100 µM	2.21 µM	0.78 µM	> 100 µM	> 91.7 µM
O=C(O)c1cccc(C(=O)O)c1S(=O)Cc1ccccc1 (stereo not given)		> 100 µM		> 100 µM		> 100 µM		> 100 µM				> 100 µM		> 100 µM		> 100 µM			> 100 µM	> 100 µM
COc1ccc(/C=C(\C#N)n2nnc3c(F)cccc32)cc1	0.293 µM	42.9 µM	0.133 µM	> 100 µM	1.16 µM	> 47 µM	0.229 µM	0.82 µM	0.311 µM	> 100 µM	0.413 µM	> 100 µM	0.22 µM	1.04 µM	0.303 µM	15 µM	0.532 µM	> 28.2 µM	> 100 µM	> 34.5 µM
COC(=O)c1cncc(/C=C/c2c(C)cc(O)cc2C)c1	4.97 µM	> 22.1 µM	11.1 µM	> 25 µM	13.3 µM	> 25 µM	2.25 µM	5.96 µM	6.77 µM	> 25 µM	8.95 µM	> 25 µM	11 µM	> 25 µM	7.71 µM	> 25 µM	17.9 µM	8.11 µM	> 25 µM	> 25 µM
O=C(CCCCCCN1CC(=O)N2[C@@H](c3ccc(Cl)c(Cl)c3)c3[nH]c4ccccc4c3C[C@H]2C1=O)NO	1.59 µM	7.41 µM	10 µM	> 33.3 µM	3.9 µM	8.38 µM	1.11 µM	4.32 µM	1.07 µM	> 33.3 µM	2.77 µM	9.15 µM	5.28 µM	9.92 µM	1.66 µM	7.07 µM	2.82 µM	4.71 µM	23.8 µM	17.9 µM
CC1(C)CC(=O)C2=C(C1)OC(N)=C(c1nc(-c3ccccc3)cs1)C2c1ccc(Br)cc1 (stereo not given)	33.2 µg/mL	126 µg/mL	36.1 µg/mL	> 150 µg/mL	44.4 µg/mL	> 150 µg/mL	69.2 µg/mL	> 150 µg/mL	58.6 µg/mL	> 150 µg/mL	42.3 µg/mL	> 150 µg/mL	66.6 µg/mL	> 150 µg/mL	30.5 µg/mL	> 150 µg/mL	116 µg/mL	20.9 µg/mL	121 µg/mL	> 150 µg/mL
CC1=C(CC(=O)c2cccc([N+](=O)[O-])c2)C(=O)c2ccccc2C1=O	4.38 µM	17.7 µM	3.79 µM	19.5 µM	38 µM	> 100 µM	2.88 µM	7.8 µM	3.19 µM	19.3 µM	18.2 µM	> 100 µM	42.5 µM	> 100 µM	2.63 µM	8.4 µM	5.87 µM	1.86 µM	7 µM	48.9 µM
COC(=O)CCCCC(=O)c1c(C)[nH]c(/C=C2\N=C(c3ccc[nH]3)C=C2OC)c1C	0.414 µM	1.5 µM	0.359 µM	1.4 µM	1.96 µM	4.19 µM	0.273 µM	1.03 µM	0.159 µM	2.32 µM	3.03 µM	10.1 µM	2.49 µM	6.39 µM	1.25 µM	2.69 µM	0.451 µM	1.14 µM	2.47 µM	1.76 µM
